Positions of bridges follow the written chain, without caps; N, C: chain ends. Non-standard residues stand in square brackets, D forms with d. Residues, ends and D or L forms follow the SMILES beside them. Trp(1-Me) = Cn1cc(C[C@H](N)C(=O)O)c2ccccc21; Sar = CNCC(=O)O
Tests used:
[1] = Solubility test at 10 mg/mL (visual inspection and light scattering); format: physicochemical; conditions: for Solubility, Condition 1: Acetate pH 4; for Solubility, Condition 2: Acetate pH 5; for Solubility, Condition 3: Phosphate pH 6; for Solubility, Condition 4: Phosphate pH 7; for Solubility, Condition 5: Phosphate pH 7.5
[2] = tested on: classical complement pathway; assay: In vitro haemolysis assay (inhibition of classical complement pathway); format: cell-based, human; conditions: human serum, sensitized sheep red blood cells; Table 3, given as upper bounds; read-out: IC50, inhibition of hemolysis
Outline: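 Compound dilutions preincubated 15 min at room temperature with diluted human serum (titrated per batch for 70-90% maximal haemolysis), then antibody-sensitized sheep RBC (10^7/well) added for 30 min at 37 °C in Tris/casein buffer, pH 7.4. Stopped with EDTA; haemolysis read at 405 nm; IC50 by 4PL fit.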

Row | SMILES | Solubility, Condition 1 [1] | Solubility, Condition 2 [1] | Solubility, Condition 3 [1] | Solubility, Condition 4 [1] | Solubility, Condition 5 [1] | IC50 [2] [nM]
1 | CC[C@H](C)[C@H](NC(=O)[C@H](C)NC(=O)[C@H](CO)NC(=O)CNC(=O)[C@H](CCC(=O)O)NC(C)=O)C(=O)N[C@H]1CSSC[C@@H](C(=O)N(C)CC(=O)N[C@@H](CCC(=O)O)C(=O)NCC(=O)N[C@@H](CCC(=O)O)C(N)=O)NC(=O)[C@H](CCCNC(=N)N)NC(=O)[C@H](Cc2c[nH]cn2)NC(=O)[C@H](CCC(=O)O)NC(=O)CNC(=O)[C@H](Cc2c[nH]c3ccccc23)NC(=O)[C@H](CC(=O)O)NC(=O)[C@H](CCC(N)=O)NC(=O)[C@H](Cc2c[nH]c3ccccc23)NC(=O)[C@H]([C@@H](C)CC)NC1=O [Compound 44] (Ac-EGSAICIWQDWGEHRC[Sar]EGE-NH2; disulfide 6-16) | − (“−” denotes lack of solubility at the given condition, as UV absorbance at 340 nm exceeds 0.1 AU and/or it is visibly turbid or contains particles) | − (“−” denotes lack of solubility at the given condition, as UV absorbance at 340 nm exceeds 0.1 AU and/or it is visibly turbid or contains particles) | + (“+” denotes solubility at the given condition, as determined by UV absorbance being less than 0.1 AU at 340 nm and the sample being clear when manually inspected) | + (“+” denotes solubility at the given condition, as determined by UV absorbance being less than 0.1 AU at 340 nm and the sample being clear when manually inspected) | + (“+” denotes solubility at the given condition, as determined by UV absorbance being less than 0.1 AU at 340 nm and the sample being clear when manually inspected) | < 250
2 | CC[C@H](C)[C@H](NC(=O)[C@H](C)NC(=O)[C@H](CO)NC(=O)CNC(=O)[C@H](CCC(=O)O)NC(C)=O)C(=O)N[C@H]1CSSC[C@@H](C(=O)N(C)CC(=O)N[C@@H](CCC(=O)O)C(N)=O)NC(=O)[C@H](CCCNC(=N)N)NC(=O)[C@H](Cc2c[nH]cn2)NC(=O)[C@H](CCC(=O)O)NC(=O)CNC(=O)[C@H](Cc2c[nH]c3ccccc23)NC(=O)[C@H](CC(=O)O)NC(=O)[C@H](CCC(N)=O)NC(=O)[C@H](Cc2cn(C)c3ccccc23)NC(=O)[C@H]([C@@H](C)CC)NC1=O [Compound 49] (Ac-EGSAICI[Trp(1-Me)]QDWGEHRC[Sar]E-NH2; disulfide 6-16) | − (“−” denotes lack of solubility at the given condition, as UV absorbance at 340 nm exceeds 0.1 AU and/or it is visibly turbid or contains particles) | − (“−” denotes lack of solubility at the given condition, as UV absorbance at 340 nm exceeds 0.1 AU and/or it is visibly turbid or contains particles) | + (“+” denotes solubility at the given condition, as determined by UV absorbance being less than 0.1 AU at 340 nm and the sample being clear when manually inspected) | + (“+” denotes solubility at the given condition, as determined by UV absorbance being less than 0.1 AU at 340 nm and the sample being clear when manually inspected) | + (“+” denotes solubility at the given condition, as determined by UV absorbance being less than 0.1 AU at 340 nm and the sample being clear when manually inspected) | < 100
3 | CC[C@H](C)[C@@H]1NC(=O)[C@@H](NC(=O)[C@H](Cc2ccccc2)NC(=O)[C@H](CCC(=O)O)NC(=O)[C@H](CO)NC(C)=O)CSSC[C@@H](C(=O)N(C)CC(=O)N[C@@H](CCC(=O)O)C(=O)N[C@@H](C)C(N)=O)NC(=O)[C@H](CCCNC(=N)N)NC(=O)[C@H](Cc2c[nH]cn2)NC(=O)[C@H](CCC(=O)O)NC(=O)CN(C)C(=O)[C@H](Cc2c[nH]c3ccccc23)NC(=O)[C@H](CC(=O)O)NC(=O)[C@H](CCC(N)=O)NC(=O)[C@H](Cc2cn(C)c3ccccc23)NC1=O [Compound 76, Ac-SEFC(1)I[1-Me-Trp]QDW[Sar]EHRC(1)[Sar]EA-NH2] (Ac-SEFCI[Trp(1-Me)]QDW[Sar]EHRC[Sar]EA-NH2; disulfide 4-14) | − (“−” denotes lack of solubility at the given condition, as UV absorbance at 340 nm exceeds 0.1 AU and/or it is visibly turbid or contains particles) | − (“−” denotes lack of solubility at the given condition, as UV absorbance at 340 nm exceeds 0.1 AU and/or it is visibly turbid or contains particles) | + (“+” denotes solubility at the given condition, as determined by UV absorbance being less than 0.1 AU at 340 nm and the sample being clear when manually inspected) | + (“+” denotes solubility at the given condition, as determined by UV absorbance being less than 0.1 AU at 340 nm and the sample being clear when manually inspected) | + (“+” denotes solubility at the given condition, as determined by UV absorbance being less than 0.1 AU at 340 nm and the sample being clear when manually inspected) | < 100
4 | CC[C@H](C)[C@@H]1NC(=O)[C@@H](NC(=O)[C@H](Cc2ccccc2)NC(=O)[C@H](N)Cc2ccc(O)cc2)CSSC[C@@H](C(=O)N[C@H](C(=O)NCC(=O)N[C@@H](C)C(=O)N[C@@H](CCC(=O)O)C(=O)N[C@@H](CO)C(N)=O)[C@@H](C)O)NC(=O)[C@H](CCCNC(=N)N)NC(=O)[C@H](Cc2c[nH]cn2)NC(=O)[C@H](CCC(=O)O)NC(=O)CN(C)C(=O)[C@H](Cc2c[nH]c3ccccc23)NC(=O)[C@H](CC(=O)O)NC(=O)[C@H](CCC(N)=O)NC(=O)[C@H](Cc2cn(C)c3ccccc23)NC1=O [Compound 73, H-{d}YFC(1)I[1-Me-Trp]QDW[Sar]EHRC(1)TGAES-NH2] (H-[dY]FCI[Trp(1-Me)]QDW[Sar]EHRCTGAES-NH2; disulfide 3-13) | + (“+” denotes solubility at the given condition, as determined by UV absorbance being less than 0.1 AU at 340 nm and the sample being clear when manually inspected) | − (“−” denotes lack of solubility at the given condition, as UV absorbance at 340 nm exceeds 0.1 AU and/or it is visibly turbid or contains particles) | − (“−” denotes lack of solubility at the given condition, as UV absorbance at 340 nm exceeds 0.1 AU and/or it is visibly turbid or contains particles) | + (“+” denotes solubility at the given condition, as determined by UV absorbance being less than 0.1 AU at 340 nm and the sample being clear when manually inspected) | + (“+” denotes solubility at the given condition, as determined by UV absorbance being less than 0.1 AU at 340 nm and the sample being clear when manually inspected) | < 100
